# Test results published in patent US10947222B2, “Indole derivatives useful as inhibitors of diacylglyceride O-acyltransferase 2” (Merck Sharp & Dohme Corp., priority 2016, dated 2021).
# Target: human DGAT2 (hDGAT2) (Homo sapiens (Human), UniProt Q96PD7)
# Assay: DGAT2 enzymatic activity assay (triolein formation, LC/MS/MS)
# Assay type: biochemical
# Details: Sf-9 membrane prep expressing hDGAT2; 25 μM diolein, 10 μM oleoyl-CoA; triolein by LC/MS/MS
# Procedure: Sf-9 insect cells were maintained in Grace's insect cell culture medium with 10% heated-inactivated fetal bovine serum, 1% Pluronic F-68 and 0.14 μg/ml Kanamycine sulfate in Erlenmeyer flasks at 28° C. in a shaker incubator. After infection with untagged baculovirus expressing human DGAT2 (hDGAT2) at multiplicity of infection (MOI) 0.1 for 48 hours, cells were harvested. Cell pellets were suspended in buffer containing 10 mM Tris-HCl (pH 7.5), 1 mM EDTA (pH 8.0), 250 mM sucrose and Complete Protease Inhibitor Cocktail (Roche Diagnostics Corp., Indianapolis, Ill.), and sonicated on ice. Membrane fractions were isolated by ultracentrifugation (100,000×g pellet), resuspended in the same buffer, and frozen (−80° C.) for later use. The protein concentration was determined with the BCA Protein Assay kit (Pierce Biotechnology Inc., Rockford, Ill.). Expression of protein levels was analyzed by immunoblotting with goat polyclonal DGAT2 antibody C-15 and donkey anti-goat IgG HRP (Santa Cruz Biotechnology, Inc., Santa Cruz, Calif.) followed by detection with ECL reagent (GE Healthcare, Piscataway, N.J.).
# LC/MS/MS analyses were performed using Thermal Fisher's LX4-TSQ Vantage system. This system consists of an Agilent binary high-performance liquid chromatography (HPLC) pumps and a TSQ Vantage triple quadrupole MS/MS instrument. For each sample, 2 μL samples from the top organic layer of in-plate liquid-liquid extraction were injected onto a Thermo Betabasic C4 column (2.1 mm×20 mm, 5 μm particle size). The samples were then eluted using the following conditions; mobile phase: methanol/water with 0.1% ammonium format=92/8 (v/v), flow rate: 1 mL/min, temperature: 25 C. Data was acquired in positive mode using a heated electrospray ionization (HESI) interface. The operational parameters for the TSQ Vantage MS/MS instrument were a spray voltage of 3000 V, capillary temperature of 280° C., vaporizer temperature 400° C., shealth gas 60 arbitrary unit, Aux gas 40 arbitrary units, S-lens 113 and collision gas 0.16 Pascals. […] (SRM) chromatograms of triolein (Q1:902.9>Q3:602.3) and internal standard (Q1:902.9>Q3:602.3) were collected for 40 sec. The peak area was integrated by Xcalibur Quan software. The ratio between the triolein generated in the reaction and spiked in internal standard was used to generate percentage inhibition and IC50 values. Compound percentage inhibition was calculated by the following formula: Inhibition %/=1−[(compound response−low control)/(high control−low control)]×100%. Potent compounds were titrated and IC50 were calculated by 4 parameter sigmoidal curve fitting formula.
# DGAT2 activity was determined by measuring the amount of enzymatic product triolein (1,2,3-Tri(cis-9-octadecenoyl)glycerol) using the membrane prep mentioned above. The assay was carried out in deep well 384 plates in a final volume of 40 μL at rt. The assay mixture contained the following: assay buffer (100 mM Tris.Cl, pH 7.0, 20 mM MgCl2, 5% ethanol), 25 μM of diolein, 10 μM of oleoyl-CoA and 10 ng/μL of DGAT2 membrane.
# human DGAT2 (hDGAT2), sequence (Q96PD7 whole entry): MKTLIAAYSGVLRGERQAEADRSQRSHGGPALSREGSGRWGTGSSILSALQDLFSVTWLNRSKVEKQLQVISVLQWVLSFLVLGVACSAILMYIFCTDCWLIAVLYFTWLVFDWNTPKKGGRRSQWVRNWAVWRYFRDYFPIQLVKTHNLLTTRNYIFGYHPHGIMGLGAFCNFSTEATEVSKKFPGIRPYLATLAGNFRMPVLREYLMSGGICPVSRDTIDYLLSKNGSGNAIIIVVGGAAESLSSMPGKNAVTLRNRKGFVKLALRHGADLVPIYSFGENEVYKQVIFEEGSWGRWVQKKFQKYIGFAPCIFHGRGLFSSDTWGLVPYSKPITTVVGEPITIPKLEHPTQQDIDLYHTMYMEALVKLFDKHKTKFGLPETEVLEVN
row,SMILES,IC50 [nM]
1,"CC1(NC(=O)c2ccc3c(-c4ccccc4Cl)c(C#N)n(-c4ccc(F)cc4)c3c2)CCS(=O)(=O)C1 (single isomer, unassigned; enantiomer a) [Example 9-A, 3-(2-chlorophenyl)-2-cyano-1-(4-fluorophenyl)-N-(3-methyl-1,1-dioxidotetrahydrothiophen-3-yl)-1H-indole-6-carboxamide (Enantiomer A)]",448
2,"CC1(NC(=O)c2ccc3c(-c4cccc(OC(F)F)c4)cn(-c4ccc(F)cn4)c3c2)CCS(=O)(=O)C1 (single isomer, unassigned; enantiomer a) [Example 10-A, 3-(3-(difluoromethoxy)phenyl)-1-(5-fluoropyridin-2-yl)-N-(3-methyl-1,1-dioxidotetrahydrothiophen-3-yl)-1H-indole-6-carboxamide (enantiomer A)]",0.94
3,"O=C(NC1CCS(=O)(=O)C1)c1ccc2c(-c3cccc(C4CC4)c3)cn(-c3ccc(F)cn3)c2c1 (single isomer, unassigned; enantiomer a) [Example 11-A, 3-(3-cyclopropylphenyl)-N-(1,1-dioxidotetrahydrothiophen-3-yl)-1-(5-fluoropyridin-2-yl)-1H-indole-6-carboxamide (enantiomer A)]",2.1
4,"CC1(NC(=O)c2ccc3c(-c4cccc(C5CC5)c4)cn(-c4ccc(F)cn4)c3c2)CCS(=O)(=O)C1 (single isomer, unassigned; enantiomer a) [Example 12-A, 3-(3-cyclopropylphenyl)-1-(5-fluoropyridin-2-yl)-N-(3-methyl-1,1-dioxidotetrahydrothiophen-3-yl)-1H-indole-6-carboxamide (enantiomer A)]",0.79
5,"O=C(NC1CCS(=O)(=O)C1)c1ccc2c(-c3cccc(OC(F)F)c3)cn(-c3ccc(F)cn3)c2c1 (single isomer, unassigned; enantiomer a) [Example 13-A, 3-(3-(difluoromethoxy)phenyl)-N-(1,1-dioxidotetrahydrothiophen-3-yl)-1-(5-fluoropyridin-2-yl)-1H-indole-6-carboxamide (enantiomer A)]",1.8
6,"CC1(NC(=O)c2ccc3c(-c4ccccc4Cl)cn(-c4ccc(F)cc4)c3c2)CCS(=O)(=O)C1 (single isomer, unassigned; enantiomer b) [Example 1-B, 3-(2-chlorophenyl)-1-(4-fluorophenyl)-N-(3-methyl-1,1-dioxidotetrahydrothiophen-3-yl)-1H-indole-6-carboxamide (Enantiomer B, slow)]",6.6
7,"Cc1c(-c2ccccc2Cl)c2ccc(C(=O)NC3(C)CCS(=O)(=O)C3)cc2n1-c1ccc(F)cc1 (single isomer, unassigned; enantiomer b) [Example 8-B, 3-(2-chlorophenyl)-1-(4-fluorophenyl)-2-methyl-N-(3-methyl-1,1-dioxidotetrahydrothiophen-3-yl)-1H-indole-6-carboxamide (Enantiomer B)]",692
8,"CC1(NC(=O)c2ccc3c(-c4ccccc4Cl)c(C#N)n(-c4ccc(F)cc4)c3c2)CCS(=O)(=O)C1 (single isomer, unassigned; enantiomer b) [Example 9-B, 3-(2-chlorophenyl)-2-cyano-1-(4-fluorophenyl)-N-(3-methyl-1,1-dioxidotetrahydrothiophen-3-yl)-1H-indole-6-carboxamide (Enantiomer B)]",235
9,"CC1(NC(=O)c2ccc3c(-c4cccc(OC(F)F)c4)cn(-c4ccc(F)cn4)c3c2)CCS(=O)(=O)C1 (single isomer, unassigned; enantiomer b) [Example 10-B, 3-(3-(difluoromethoxy)phenyl)-1-(5-fluoropyridin-2-yl)-N-(3-methyl-1,1-dioxidotetrahydrothiophen-3-yl)-1H-indole-6-carboxamide (enantiomer B)]",1
10,"CC1(NC(=O)c2ccc3c(-c4cccc(C5CC5)c4)cn(-c4ccc(F)cn4)c3c2)CCS(=O)(=O)C1 (single isomer, unassigned; enantiomer b) [Example 12-B, 3-(3-cyclopropylphenyl)-1-(5-fluoropyridin-2-yl)-N-(3-methyl-1,1-dioxidotetrahydrothiophen-3-yl)-1H-indole-6-carboxamide (enantiomer B)]",0.73

# Second part, the compound after the results:
row,IC50 [nM],SMILES
1,16,"CC1(NC(=O)c2ccc3c(-c4ccccc4Cl)cn(-c4ccc(F)cn4)c3c2)CCS(=O)(=O)C1 (single isomer, unassigned; enantiomer a) [Example 14-A, 3-(2-chlorophenyl)-1-(5-fluoropyridin-2-yl)-N-(3-methyl-1,1-dioxidotetrahydrothiophen-3-yl)-1H-indole-6-carboxamide (Enantiomer A, Fast)]"
2,78,"CC1(NC(=O)c2ccc3c(-c4ccccc4Cl)cn(-c4ncc(F)cn4)c3c2)CCS(=O)(=O)C1 (single isomer, unassigned; enantiomer a) [Example 15-A, 3-(2-chlorophenyl)-1-(5-fluoropyrimidin-2-yl)-N-(3-methyl-1,1-dioxidotetrahydrothiophen-3-yl)-1H-indole-6-carboxamide (enantiomer A, fast)]"
3,2.7,"CC1(NC(=O)c2ccc3c(-c4cccc(C5CC5)c4)cn(-c4ncc(F)cn4)c3c2)CCS(=O)(=O)C1 (single isomer, unassigned; enantiomer a) [Example 16-A, 3-(3-cyclopropylphenyl)-1-(5-fluoropyrimidin-2-yl)-N-(3-methyl-1,1-dioxidotetrahydrothiophen-3-yl)-1H-indole-6-carboxamide (enantiomer A)]"
4,3.3,"O=C(NC1CCS(=O)(=O)C1)c1ccc2c(-c3cccc(C4CC4)c3)cn(-c3ncc(F)cn3)c2c1 (single isomer, unassigned; enantiomer a) [Example 17-A, 3-(3-cyclopropylphenyl)-N-(1,1-dioxidotetrahydrothiophen-3-yl)-1-(5-fluoropyrimidin-2-yl)-1H-indole-6-carboxamide (enantiomer A)]"
5,1.7,"CC1(NC(=O)c2ccc3c(-c4cccc(OC(F)F)c4)cn(-c4ncc(F)cn4)c3c2)CCS(=O)(=O)C1 (single isomer, unassigned; enantiomer a) [Example 18-A, 3-(3-(difluoromethoxy)phenyl)-1-(5-fluoropyrimidin-2-yl)-N-(3-methyl-1,1-dioxidotetrahydrothiophen-3-yl)-1H-indole-6-carboxamide (enantiomer A)]"
6,1.6,"O=C(NC1CCS(=O)(=O)C1)c1ccc2c(-c3cccc(OC(F)F)c3)cn(-c3ncc(F)cn3)c2c1 (single isomer, unassigned; enantiomer a) [Example 19-A, 3-(3-(difluoromethoxy)phenyl)-N-(1,1-dioxidotetrahydrothiophen-3-yl)-1-(5-fluoropyrimidin-2-yl)-1H-indole-6-carboxamide (enantiomer A)]"
7,2.9,"O=C(NC1CCS(=O)(=O)C1)c1ccc2c(-c3cccc(C4CC4)c3)cn(-c3ccc(F)cc3)c2c1 (single isomer, unassigned; enantiomer a) [Example 26-A, 3-(3-Cyclopropylphenyl)-N-(1,1-dioxidotetrahydrothiophen-3-yl)-1-(4-fluorophenyl)-1H-indole-6-carboxamide (Enantiomer A)]"
8,0.52,"O=C(NC1CCS(=O)(=O)C1)c1ccc2c(-c3cccc(OC(F)F)c3)cn(-c3ccc(F)cc3)c2c1 (single isomer, unassigned; enantiomer a) [Example 27-A, 3-(3-(difluoromethoxy)phenyl)-N-(1,1-dioxidotetrahydrothiophen-3-yl)-1-(4-fluorophenyl)-1H-indole-6-carboxamide (enantiomer A)]"
9,9.8,"CC1(NC(=O)c2ccc3c(-c4ccccc4Cl)cn(-c4ccc(F)cn4)c3c2)CCS(=O)(=O)C1 (single isomer, unassigned; enantiomer b) [Example 14-B, 3-(2-chlorophenyl)-1-(5-fluoropyridin-2-yl)-N-(3-methyl-1,1-dioxidotetrahydrothiophen-3-yl)-1H-indole-6-carboxamide (Enantiomer B, Slow)]"
